Test system: lymphocytes isolated from Balb/C mice
Assay: lymphocyte cell proliferation assay
Format: cell-based
Details: LPS at 1 μg/ml (table prints concentration n/a)
Procedure: The effects of the ginseng extracts produced during these studies, on cell proliferation of lymphocytes isolated from Balb/C mice were assessed by the methods disclosed in Chapters 2 and 3 in Current Protocols in Immunology, (Coligan et al., Eds, 2007, John Wiley & Sons). A first positive control was lipopolysaccharide (LPS) at a concentration of 1 μg/ml. LPS (Prod. L4641) was supplied by Sigma-Aldrich Canada (Oakville, ON, Canada). A commercially available poly-furanosyl-pyranosyl-saccharide-rich ginseng extract, Cold-FX® (Cold-FX is a registered trademark of CV Technologies Inc., Edmonton, Alberta, Canada), was obtained from a local supermarket, and was used for comparison as a second positive control. The effects of the positive controls and the ginseng extracts produced by the three studies described herein on cell proliferation are shown in Table 1. […]
The bioactivity of the dried ginseng extract produced with the pilot scale process disclosed herein was assessed using the assay, related methods, positive and negative controls as described in Example 1.
The biological activity of the dried ginseng extracts produced from alcohol-washed dried ginseng meal during the first study of this example was assessed using the assay and methods described in Example 1, and the results compared to the positive control #2 described in Example 1.

lipopolysaccharide [Positive control #1 (LPS)]
Optical Density (lymphocyte cell proliferation): 0.361
